25 molecules from patent US20250171437A1 (Agios Pharmaceuticals,Inc., priority 2022, published 2025) can be followed below.

Bounds are passed on as bounds.

For this experiment, the target named is T1, human PAH with the R408W mutation (A375 R408W cells) (Homo sapiens, UniProt P00439, R408W).
T1 construct: expressed in transfected cells
T1 sequence (P00439 1-452 R408W): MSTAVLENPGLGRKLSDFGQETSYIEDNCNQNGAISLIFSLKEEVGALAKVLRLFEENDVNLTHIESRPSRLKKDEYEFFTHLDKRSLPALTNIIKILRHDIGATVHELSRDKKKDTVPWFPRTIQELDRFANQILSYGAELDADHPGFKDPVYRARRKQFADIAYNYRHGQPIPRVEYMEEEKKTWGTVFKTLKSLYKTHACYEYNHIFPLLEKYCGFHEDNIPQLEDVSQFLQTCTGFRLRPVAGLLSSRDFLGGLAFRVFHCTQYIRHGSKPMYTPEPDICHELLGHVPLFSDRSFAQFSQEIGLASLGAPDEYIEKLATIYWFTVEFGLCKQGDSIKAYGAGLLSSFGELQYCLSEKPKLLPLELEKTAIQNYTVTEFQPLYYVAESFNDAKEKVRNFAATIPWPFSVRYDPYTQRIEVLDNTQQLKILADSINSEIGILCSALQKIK
Description: Cell Based Phenylalanine Flux Assay. The following applies: A375 R408W cells; 24 hrs with compound, then 20 μM sepiapterin and 800 μM 13C9,15N-Phenylalanine for 4 hours; 13C-Tyrosine by LC-MS; average where tested multiple times. In outline:
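Puromycin-selected A375 line, lentiviral hPAH R408W; cmpd 24 h, 37 °C, 5% CO2, 0.5% DMSO; then 20 μM sepiapterin + 800 μM 13C9,15N-Phe, 4 h; media extracted in 80% MeCN; 13C-Tyr by LC-MS; AC50 from 10-pt curves.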
Turning to `Cn1cc(-c2ccc3c(C(=O)N4CCc5[nH]cnc5[C@H]4c4nc5cccc(F)c5o4)cnn3c2)cn1` [Example 383, (S)-(4-(7-fluorobenzo[d]oxazol-2-yl)-6,7-dihydro-1H-imidazo[4,5-c]pyridin-5(4H)-yl)(6-(1-methyl-1H-pyrazol-4-yl)pyrazolo[1,5-a]pyridin-3-yl)methanone], the AC50 (usually the concentration giving half of the maximal activity seen) was at most 0.5 µM.

In the case of `Cn1cc(-c2ccc3c(C(=O)N4CCc5[nH]cnc5[C@@H]4c4nc5cccc(F)c5o4)cnn3c2)cn1` [Example 384, (R)-(4-(7-fluorobenzo[d]oxazol-2-yl)-6,7-dihydro-1H-imidazo[4,5-c]pyridin-5(4H)-yl)(6-(1-methyl-1H-pyrazol-4-yl)pyrazolo[1,5-a]pyridin-3-yl)methanone], the AC50 lay in the range of 1 to 5 µM.

Consider `O=C(CCc1nccs1)N1CCc2[nH]cnc2[C@H]1c1nc2cccc(F)c2o1` [Example 385, 1-[(4S)-4-(7-fluoro-1,3-benzoxazol-2-yl)-1,4,6,7-tetrahydroimidazo[4,5-c]pyridin-5-yl]-3-thiazol-2-yl-propan-1-one], for which the AC50 is at most 0.5 µM.

For `O=C(CCc1nccs1)N1CCc2[nH]cnc2[C@@H]1c1nc2cccc(F)c2o1` [Example 386, 1-[(4R)-4-(7-fluoro-1,3-benzoxazol-2-yl)-1,4,6,7-tetrahydroimidazo[4,5-c]pyridin-5-yl]-3-thiazol-2-yl-propan-1-one], the AC50 is at least 5 µM.

As to `O=C(CCc1ncco1)N1CCc2[nH]cnc2[C@H]1c1nc2cccc(F)c2o1` [Example 387, (S)-1-(4-(7-fluorobenzo[d]oxazol-2-yl)-6,7-dihydro-1H-imidazo[4,5-c]pyridin-5(4H)-yl)-3-(oxazol-2-yl)propan-1-one], the AC50 was 0.5 to 1 µM.

`O=C(CCc1ncco1)N1CCc2[nH]cnc2[C@@H]1c1nc2cccc(F)c2o1` [Example 388, (R)-1-(4-(7-fluorobenzo[d]oxazol-2-yl)-6,7-dihydro-1H-imidazo[4,5-c]pyridin-5(4H)-yl)-3-(oxazol-2-yl)propan-1-one]: the AC50 was at least 5 µM.

`Cc1ccc2oc([C@@H]3c4nc[nH]c4CCN3C(=O)c3nnc(-c4ccn(C)n4)o3)nc2c1` [Example 389, (S)-(5-(1-methyl-1H-pyrazol-3-yl)-1,3,4-oxadiazol-2-yl)(4-(5-methylbenzo[d]oxazol-2-yl)-6,7-dihydro-1H-imidazo[4,5-c]pyridin-5(4H)-yl)methanone]: the AC50 was at most 0.5 µM.

As for `Cc1ccc2oc([C@H]3c4nc[nH]c4CCN3C(=O)c3nnc(-c4ccn(C)n4)o3)nc2c1` [Example 390, (R)-(5-(1-methyl-1H-pyrazol-3-yl)-1,3,4-oxadiazol-2-yl)(4-(5-methylbenzo[d]oxazol-2-yl)-6,7-dihydro-1H-imidazo[4,5-c]pyridin-5(4H)-yl)methanone], the AC50 lay in the range of 1 to 5 µM.

In the case of `Cc1cccc2nc([C@H]3c4nc[nH]c4CCN3C(=O)c3oc(C(C)(C)O)nc3C(F)F)oc12` [Example 391, (R)-(4-(difluoromethyl)-2-(2-hydroxypropan-2-yl)oxazol-5-yl)(4-(7-methylbenzo[d]oxazol-2-yl)-6,7-dihydro-1H-imidazo[4,5-c]pyridin-5(4H)-yl)methanone], the AC50 is 1 to 5 µM.

As to `Cc1cccc2nc([C@@H]3c4nc[nH]c4CCN3C(=O)c3oc(C(C)(C)O)nc3C(F)F)oc12` [Example 392, (S)-(4-(difluoromethyl)-2-(2-hydroxypropan-2-yl)oxazol-5-yl)(4-(7-methylbenzo[d]oxazol-2-yl)-6,7-dihydro-1H-imidazo[4,5-c]pyridin-5(4H)-yl)methanone], the AC50 is at most 0.5 µM.

Take `Cc1cccc2nc([C@@H]3c4nc[nH]c4CCN3C(=O)c3ocnc3C(F)F)oc12` [Example 393, (S)-(4-(difluoromethyl)oxazol-5-yl)(4-(7-methylbenzo[d]oxazol-2-yl)-6,7-dihydro-1H-imidazo[4,5-c]pyridin-5(4H)-yl)methanone]: the AC50 was at most 0.5 µM.

For `Cc1cccc2nc([C@H]3c4nc[nH]c4CCN3C(=O)c3ocnc3C(F)F)oc12` [Example 394, (R)-(4-(difluoromethyl)oxazol-5-yl)(4-(7-methylbenzo[d]oxazol-2-yl)-6,7-dihydro-1H-imidazo[4,5-c]pyridin-5(4H)-yl)methanone], the AC50 was 0.5 to 1 µM.

Regarding `O=C(c1cnn2cc(N3CCC4(CC3)CC4)ccc12)N1CCc2[nH]cnc2[C@H]1c1nc2cccc(F)c2o1` [Example 395, (S)-(6-(6-azaspiro[2.5]octan-6-yl)pyrazolo[1,5-a]pyridin-3-yl)(4-(7-fluorobenzo[d]oxazol-2-yl)-6,7-dihydro-1H-imidazo[4,5-c]pyridin-5(4H)-yl)methanone], the AC50 was 0.5 to 1 µM.

Take `O=C(c1cnn2cc(N3CCC4(CC3)CC4)ccc12)N1CCc2[nH]cnc2[C@@H]1c1nc2cccc(F)c2o1` [Example 396, (R)-(6-(6-azaspiro[2.5]octan-6-yl)pyrazolo[1,5-a]pyridin-3-yl)(4-(7-fluorobenzo[d]oxazol-2-yl)-6,7-dihydro-1H-imidazo[4,5-c]pyridin-5(4H)-yl)methanone]: the half-maximal activity concentration (AC50) is 1 to 5 µM.

Take `O=C(CCc1nccs1)N1CCc2[nH]cnc2[C@H]1c1nc2c(F)cccc2o1` [Example 397, (S)-1-(4-(4-fluorobenzo[d]oxazol-2-yl)-6,7-dihydro-1H-imidazo[4,5-c]pyridin-5(4H)-yl)-3-(thiazol-2-yl)propan-1-one]: the AC50 lay in the range of 0.5 to 1 µM.

For the molecule `O=C(CCc1nccs1)N1CCc2[nH]cnc2[C@@H]1c1nc2c(F)cccc2o1` [Example 398, (R)-1-(4-(4-fluorobenzo[d]oxazol-2-yl)-6,7-dihydro-1H-imidazo[4,5-c]pyridin-5(4H)-yl)-3-(thiazol-2-yl)propan-1-one], the AC50 was at least 5 µM.

As for `O=C(c1nnc(-c2cccnc2)o1)N1CCc2[nH]cnc2[C@H]1c1nc2cc(F)ccc2o1` [Example 399, (S)-(4-(5-fluorobenzo[d]oxazol-2-yl)-6,7-dihydro-1H-imidazo[4,5-c]pyridin-5(4H)-yl)(5-(pyridin-3-yl)-1,3,4-oxadiazol-2-yl)methanone], the AC50 was in the range of 0.5 to 1 µM.

In the case of `O=C(c1nnc(-c2cccnc2)o1)N1CCc2[nH]cnc2[C@@H]1c1nc2cc(F)ccc2o1` [Example 400, (R)-(4-(5-fluorobenzo[d]oxazol-2-yl)-6,7-dihydro-1H-imidazo[4,5-c]pyridin-5(4H)-yl)(5-(pyridin-3-yl)-1,3,4-oxadiazol-2-yl)methanone], the AC50 fell in the range of 1 to 5 µM.

`O=C(c1oc(N2CCC(F)CC2)nc1C(F)F)N1CCc2[nH]cnc2[C@H]1c1nc2cc(F)ccc2o1` [Example 401, (S)-(4-(difluoromethyl)-2-(4-fluoropiperidin-1-yl)oxazol-5-yl)(4-(5-fluorobenzo[d]oxazol-2-yl)-6,7-dihydro-1H-imidazo[4,5-c]pyridin-5(4H)-yl)methanone]: the half-maximal activity concentration (AC50) was at most 0.5 µM.

Consider `O=C(c1oc(N2CCC(F)CC2)nc1C(F)F)N1CCc2[nH]cnc2[C@@H]1c1nc2cc(F)ccc2o1` [Example 402, (R)-(4-(difluoromethyl)-2-(4-fluoropiperidin-1-yl)oxazol-5-yl)(4-(5-fluorobenzo[d]oxazol-2-yl)-6,7-dihydro-1H-imidazo[4,5-c]pyridin-5(4H)-yl)methanone], for which the AC50 was in the range of 1 to 5 µM.

In the case of `CN1CCN(c2nc(C(F)F)c(C(=O)N3CCc4[nH]cnc4[C@H]3c3nc4cc(F)ccc4o3)o2)CC1` [Example 403, (S)-(4-(difluoromethyl)-2-(4-methylpiperazin-1-yl)oxazol-5-yl)(4-(5-fluorobenzo[d]oxazol-2-yl)-6,7-dihydro-1H-imidazo[4,5-c]pyridin-5(4H)-yl)methanone], the AC50 lay within 0.5 to 1 µM.

As to `CN1CCN(c2nc(C(F)F)c(C(=O)N3CCc4[nH]cnc4[C@@H]3c3nc4cc(F)ccc4o3)o2)CC1` [Example 404, (R)-(4-(difluoromethyl)-2-(4-methylpiperazin-1-yl)oxazol-5-yl)(4-(5-fluorobenzo[d]oxazol-2-yl)-6,7-dihydro-1H-imidazo[4,5-c]pyridin-5(4H)-yl)methanone], the concentration at half-maximal activity (AC50) was 1 to 5 µM.

Consider `O=C(c1oc(-c2cncnc2)nc1C(F)F)N1CCc2[nH]cnc2[C@@H]1c1nc2cc(F)ccc2o1` [Example 405, (R)-(4-(difluoromethyl)-2-(pyrimidin-5-yl)oxazol-5-yl)(4-(5-fluorobenzo[d]oxazol-2-yl)-6,7-dihydro-1H-imidazo[4,5-c]pyridin-5(4H)-yl)methanone], for which the half-maximal activity concentration (AC50) fell in the range of 0.5 to 1 µM.

As to `O=C(c1oc(-c2cncnc2)nc1C(F)F)N1CCc2[nH]cnc2[C@H]1c1nc2cc(F)ccc2o1` [Example 406, (S)-(4-(difluoromethyl)-2-(pyrimidin-5-yl)oxazol-5-yl)(4-(5-fluorobenzo[d]oxazol-2-yl)-6,7-dihydro-1H-imidazo[4,5-c]pyridin-5(4H)-yl)methanone], the AC50 was at most 0.5 µM.

For `Cc1ccc2oc([C@@H]3c4nc[nH]c4CCN3C(=O)c3oc(C(C)(C)O)nc3Br)nc2c1` [Example 407, (S)-(4-bromo-2-(2-hydroxypropan-2-yl)oxazol-5-yl)(4-(5-methylbenzo[d]oxazol-2-yl)-6,7-dihydro-1H-imidazo[4,5-c]pyridin-5(4H)-yl)methanone], the AC50 is at most 0.5 µM.
